Measurements published in patent US7557110B2, “Pyrazolo[1,5-A] pyrimidine derivatives” (Teijin Pharma Limited, priority 2003, dated 2009).

Key:
CDK-2 = CDK-2 (Homo sapiens, UniProt P24941); assay: CDK-2 enzyme activity inhibition (33P-ATP filter plate kinase assay); format: biochemical; settings: read-out: CDK-2 inhibition IC50
Description: [General Procedure for Measurement of CDK-2 Enzyme Activity Inhibition]

MAPKAP-K2 = MAPKAP-K2 (Homo sapiens, UniProt P49137); assay: MAPKAP-K2 enzyme activity inhibition (33P-ATP filter plate kinase assay); format: biochemical; settings: MAPKAP-K2 inhibitory activity; assays conducted at typically 1-100 μM; note: key: +: active; ++: more active; +++: very active
Protocol: [General Procedure for Measurement of MAPKAP-K2 Enzyme Activity Inhibition]
After conducting the reaction for 30 minutes at room temperature, an equivalent volume of a 200 mM phosphoric acid solution was added to suspend the reaction, and 90 μL of the reaction product was adsorbed onto a MultiScreen PH plate (Millipore) and rinsed with a 100 mM phosphoric acid solution. After drying the plate, 30 μL of MicroScint-O (Packard BioScience) was added, and the cpm was measured with a scintillation counter to determine the inhibiting activity. Substrate peptide is […]

Chain of MAPKAP-K2 (P49137 whole entry): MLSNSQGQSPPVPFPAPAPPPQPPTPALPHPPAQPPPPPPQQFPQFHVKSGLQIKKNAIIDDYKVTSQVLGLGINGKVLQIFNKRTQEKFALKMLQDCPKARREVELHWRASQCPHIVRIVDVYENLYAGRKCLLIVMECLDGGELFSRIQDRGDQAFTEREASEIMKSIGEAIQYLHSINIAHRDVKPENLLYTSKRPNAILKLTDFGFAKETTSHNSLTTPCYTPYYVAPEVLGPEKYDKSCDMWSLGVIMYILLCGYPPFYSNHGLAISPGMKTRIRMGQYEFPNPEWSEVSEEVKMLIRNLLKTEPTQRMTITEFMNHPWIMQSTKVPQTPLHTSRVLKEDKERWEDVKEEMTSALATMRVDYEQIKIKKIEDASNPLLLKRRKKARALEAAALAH

Compound	IC50 (CDK-2) [µM]	activity (efficacy against MAPKAP-K2) (MAPKAP-K2)
N[C@H]1CC[C@H](Nc2cc(NCc3cccc(Cl)c3)n3ncc(I)c3n2)CC1 [Compound 297, {5-[(trans-4-aminocyclohexyl)amino]-3-iodo(pyrazolo[1,5-a]pyrimidin-7-yl)}[(3-chlorophenyl)methyl]amine]	< 100	++
Cc1c(N[C@H]2CC[C@H](N)CC2)nc2ccnn2c1Nc1ccc(OC(F)(F)F)cc1 [Compound 179]	< 100	+++
Cc1c(NC2CCCNC2)nc2ccnn2c1Nc1ccc(I)cc1 (centres unmarked) [Compound 105]	< 100	+++
Cc1c(N[C@H]2CC[C@H](N)CC2)nc2ccnn2c1Nc1cccc(OCc2ccc(Cl)cc2)c1 [Compound 248]	< 100	++
CCOc1ccc(Nc2c(C)c(N[C@H]3CC[C@H](N)CC3)nc3c(NS(C)(=O)=O)cnn23)cc1 [Compound 386, {5-[(trans-4-aminocyclohexyl)amino]-7-[(4-ethoxyphenyl)amino]-6-methyl(pyrazolo[1,5-a]pyrimidin-3-yl)}(methylsulfonyl)amine]	–	+
Cc1ccccc1-c1ccc(Nc2c(C)c(N[C@H]3CC[C@H](N)CC3)nc3ccnn23)cc1 [Compound 321]	< 100	+++
Cc1c(N[C@H]2CC[C@H](N)CC2)nc2ccnn2c1Nc1ccc(OCC2CCCCC2)cc1 [Compound 237]	< 100	++
CCc1c(N[C@H]2CC[C@H](N)CC2)nc2ccnn2c1Nc1ccccc1OC [Compound 42]	< 100	++
CCOc1ccc(Nc2c(C)c(N[C@H]3CC[C@H](N)CC3)nc3c(NC(C)=O)cnn23)cc1 [Compound 378, N-{5-[(trans-4-aminocyclohexyl)amino]-7-[(4-ethoxyphenyl)amino]-6-methyl(pyrazolo[1,5-a]pyrimidin-3-yl)}acetamide]	–	+
Cc1c(N[C@H]2CC[C@H](N)CC2)nc2ccnn2c1Nc1ccc(OCCN2CCOCC2)cc1 [Compound 221]	< 100	+++
CCOC(=O)c1ccc(Nc2c(CC)c(N[C@H]3CC[C@H](N)CC3)nc3ccnn23)cc1Cl [Compound 137]	< 100	+++
N#Cc1cnn2c(Nc3ccccc3Cl)cc(N[C@H]3CC[C@H](N)CC3)nc12 [Compound 170]	< 100	+++
Cc1c(NC2CCCNC2)nc2ccnn2c1Nc1ccc(F)c(Cl)c1 (centres unmarked) [Compound 152]	–	++
CCOc1ccc(Nc2c(C)c(N[C@@H]3CCN(Cc4ccccc4)C3)nc3ccnn23)cc1 [Compound 418]	< 100	++
CCOc1ccc(Nc2c(C)c(N[C@H]3CC[C@H](N)CC3)nc3c(OC)cnn23)cc1 [Compound 425]	< 100	–
Cc1c(NC2CCC(N)CC2)nc2ccnn2c1Nc1ccc(OCC2CCCO2)cc1 (centres unmarked) [Compound 256]	< 100	+++
CCOc1ccc(-c2ccc(Nc3c(C)c(N[C@H]4CC[C@H](N)CC4)nc4ccnn34)cc2)cc1 [Compound 356]	< 100	+++
Cc1csc(-c2ccc(Nc3c(C)c(N[C@H]4CC[C@H](N)CC4)nc4ccnn34)cc2)c1 [Compound 357]	< 100	+++
CCOc1ccc(Nc2c(C)c(N(CC)C3CCCNC3)nc3ccnn23)cc1 (centres unmarked) [Compound 341]	< 100	+
Cc1c(N[C@H]2CC[C@H](N)CC2)nc2ccnn2c1Nc1ccc(OCCN2CCCCC2)cc1 [Compound 223]	< 100	+++
Cc1c(N[C@H]2CC[C@H](N)CC2)nc2ccnn2c1Nc1ccc(OC2CCCC2)cc1 [Compound 216]	< 100	+++
Cc1c(N[C@H]2CC[C@H](N)CC2)nc2ccnn2c1Nc1ccc(-c2csc3ccccc23)cc1 [Compound 292]	< 100	++

Compound	IC50 (CDK-2) [µM]	activity (efficacy against MAPKAP-K2) (MAPKAP-K2)
Cc1c(N[C@H]2CC[C@H](N)CC2)nc2ccnn2c1Nc1ccc(OCc2ccccn2)cc1 [Compound 224]	< 100	+++
Cc1c(N[C@H]2CC[C@H](N)CC2)nc2ccnn2c1Nc1ccc(-c2cccnc2)cc1 [Compound 300]	< 100	+++
Cc1cccc(-c2ccc(Nc3c(C)c(N[C@H]4CC[C@H](N)CC4)nc4ccnn34)cc2)c1 [Compound 320]	< 100	+++
Cc1c(N[C@H]2CC[C@H](N)CC2)nc2ccnn2c1Nc1ccc(OC2CCOCC2)cc1 [Compound 219]	< 100	+++
Cc1c(N[C@H]2CC[C@H](N)CC2)nc2ccnn2c1Nc1ccc(-c2ccc(C(F)(F)F)cc2)cc1 [Compound 350]	< 100	+++
Cc1c(N[C@H]2CC[C@H](N)CC2)nc2ccnn2c1Nc1ccc(OCc2cccnc2)cc1 [Compound 222]	< 100	+++
N[C@H]1CC[C@H](Nc2cc(NCc3ccc(F)c(Cl)c3)n3ncc(Br)c3n2)CC1 [Compound 13]	< 100	+
Cc1c(NC2CCC(N)CC2)nc2ccnn2c1Nc1ccc(OC2CCNC2)cc1 (centres unmarked) [Compound 229]	< 100	+++
CNC(=O)c1ccc(Nc2c(C)c(N[C@H]3CC[C@H](N)CC3)nc3ccnn23)cc1 [Compound 460]	< 100	+++
CCOc1ccc(Nc2c(C)c(NC3(CO)CCCC3)nc3ccnn23)cc1 [Compound 368]	< 100	–
Cc1c(N[C@H]2CC[C@H](N)CC2)nc2ccnn2c1Nc1ccc(-c2cc3ccccc3s2)cc1 [Compound 289]	< 100	+++
CCCC1CCNCC1Nc1nc2ccnn2c(Nc2ccc(OCC)cc2)c1C (racemic) [Compound 814, 7-N-(4-Ethoxy-phenyl)-6-methyl-5-N-(4-propyl-piperidin-3-yl)-pyrazolo[1,5-a]pyrimidine-5,7-diamine]	–	++
Cc1c(N[C@H]2CC[C@H](N)CC2)nc2ccnn2c1Nc1cccc(OCCN2CCNCC2)c1 [Compound 259, {5-[(trans-4-aminocyclohexyl)amino]-6-methyl(pyrazolo[1,5-a]pyrimidin-7-yl)}[3-(2-piperazinylethoxy)phenyl]amine]	–	++
CCOc1ccc(Nc2c(C)c(NC3CCCCNC3)nc3ccnn23)cc1 (centres unmarked) [Compound 272, [5-(azaperhydroepin-3-ylamino)-6-methyl(pyrazolo[1,5-a]pyrimidin-7-yl)](4-ethoxyphenyl)amine]	–	++
CCOc1ccc(Nc2c(C)c(NC(C)(C)CO)nc3ccnn23)cc1 [Compound 371]	< 100	–
CCOc1ccc(Nc2c(C)c(NC(CO)C(C)C)nc3ccnn23)cc1 (centres unmarked) [Compound 366]	< 100	–
CCOc1ccc(Nc2c(C)c(N[C@H]3CC[C@H](N)CC3)nc3c(NCc4ccccc4)cnn23)cc1 [Compound 436, {5-[(trans-4-aminocyclohexyl)amino]-6-methyl-[3-benzylamino](pyrazolo[1,5-a]pyrimidin-7-yl)}(4-ethoxyphenyl)amine]	–	+
CCOc1ccc(Nc2c(C)c(N[C@H]3CC[C@H](N)CC3)nc3c(NC(=O)Nc4ccccc4)cnn23)cc1 [Compound 389, N-{5-[(trans-4-aminocyclohexyl)amino]-7-[(4-ethoxyphenyl)amino]-6-methyl(pyrazolo[1,5-a]pyrimidin-3-yl)}(phenylamino)carboxamide]	–	++
Cc1c(N[C@H]2CC[C@H](N)CC2)nc2ccnn2c1Nc1ccc(C#Cc2ccccc2)cc1 [Compound 375, {5-[(trans-4-aminocyclohexyl)amino]-6-methyl(pyrazolo[1,5-a]pyrimidin-7-yl)}[4-(2-phenylethynyl)phenyl]amine]	–	+++
Cc1c(N[C@H]2CC[C@H](N)CC2)nc2ccnn2c1Nc1ccc(C(=O)N2CCCC2)cc1 [Compound 792, 4-({5-[(trans-4-aminocyclohexyl)amino]-6-methyl(pyrazolo[1,5-a]pyrimidin-7-yl)}amino)phenyl pyrrolidinyl ketone]	–	+++
Cc1c(N[C@H]2CC[C@H](N)CC2)nc2ccnn2c1Nc1cccc(-c2cccnc2)c1 [Compound 450, {5-[(trans-4-aminocyclohexyl)amino]-6-methyl(pyrazolo[1,5-a]pyrimidin-7-yl)}(3-(3-pyridyl)phenyl)amine]	–	+++
